Literature values, collected in PubChem BioAssay AID1259409 (Chemical Carcinogenesis Research Information System (CCRIS), 2018).

System: rodent chemically induced tumor inhibition, incidence and multiplicity
Test: CCRIS tumor inhibitor studies
Conditions: Dose [Inhibitor]: 0

Structure (SMILES): O=C(OC[C@@H]1O[C@H](OC(=O)c2cc(O)c(O)c(OC(=O)c3cc(O)c(O)c(O)c3)c2)[C@@H](OC(=O)c2cc(O)c(O)c(OC(=O)c3cc(O)c(O)c(O)c3)c2)[C@H](OC(=O)c2cc(O)c(O)c(OC(=O)c3cc(O)c(O)c(O)c3)c2)[C@H]1OC(=O)c1cc(O)c(O)c(OC(=O)c2cc(O)c(O)c(O)c2)c1)c1cc(O)c(O)c(OC(=O)c2cc(O)c(O)c(O)c2)c1
- tumour outcome (control, treated, inhibition, significance) (Carcinogen: 7,12-DIMETHYLBENZ[A]ANTHRACENE : 57-97-6, 17 MG 2/WK FOR 20 WK APPLIED 24 HR POST EACH PROMOTER DOSE (STUDY DURATION: 22 WK), Route [Inhibitor]: DERMAL, Species: MOUSE, Strain/Sex: CF-1/FEMALE, Target Tissue: Type of Lesion: SKIN: PAPILLOMA, Dose [Carcinogen]: 25.6 UG IN 0.2 ML ACETONE ONCE, Promoter: 12-O-TETRADECANOYLPHORBOL-13-ACETATE, 16561-29-8): 90%, 98%, -9%, not calculated
- tumour outcome (control, treated, inhibition, significance) (Carcinogen: 7,12-DIMETHYLBENZ[A]ANTHRACENE, 57-97-6, 1% IN DIET FOR 35 WK BEGINNING POST CARCINOGEN DOSE (STUDY DURATION: 36 WK), Route [Inhibitor]: ORAL, Species: RAT, Strain/Sex: SPRAGUE-DAWLEY/FEMALE, Target Tissue: Type of Lesion: EAR DUCT: TUMOR, Dose [Carcinogen]: 50 MG/KG BW IN CORN OIL ONCE, Promoter: NONE USED): 5/15 (33%), 5/15 (33%), 0%, not significant
- tumour outcome (control, treated, inhibition, significance) (Carcinogen: 7,12-DIMETHYLBENZ[A]ANTHRACENE, 57-97-6, 1% IN DIET FOR 35 WK BEGINNING POST CARCINOGEN DOSE (STUDY DURATION: 36 WK), Route [Inhibitor]: ORAL, Species: RAT, Strain/Sex: SPRAGUE-DAWLEY/FEMALE, Target Tissue: Type of Lesion: MAMMARY GLAND: ADENOCARCINOMA, Dose [Carcinogen]: 50 MG/KG BW IN CORN OIL ONCE, Promoter: NONE USED): 14/15 (93%), 12/15 (80%), 14%, not significant
- tumour outcome (control, treated, inhibition, significance) (Carcinogen: 7,12-DIMETHYLBENZ[A]ANTHRACENE, 57-97-6, 1% IN DIET FOR 35 WK BEGINNING POST CARCINOGEN DOSE (STUDY DURATION: 36 WK), Route [Inhibitor]: ORAL, Species: RAT, Strain/Sex: SPRAGUE-DAWLEY/FEMALE, Target Tissue: Type of Lesion: MAMMARY GLAND: FIBROADENOMA, Dose [Carcinogen]: 50 MG/KG BW IN CORN OIL ONCE, Promoter: NONE USED): 3/15 (20%), 2/15 (13%), 35%, not significant
- tumour outcome (control, treated, inhibition, significance) (Carcinogen: 7,12-DIMETHYLBENZ[A]ANTHRACENE, 57-97-6, 2.5 UMOL IN 0.4 ML ACETONE 20 MIN PRIOR TO EACH PROMOTER DOSE (STUDY DURATION: 47 WK), Route [Inhibitor]: DERMAL, Species: MOUSE, Strain/Sex: CF-1/FEMALE, Target Tissue: Type of Lesion: SKIN: PAPILLOMA, Dose [Carcinogen]: 100 NMOL IN 0.2 ML ACETONE ONCE): 94%, 61%, 35%, not calculated
- tumour outcome (control, treated, inhibition, significance) (Carcinogen: 7,12-DIMETHYLBENZ[A]ANTHRACENE, 57-97-6, 5 UMOL IN 0.4 ML ACETONE 20 MIN PRIOR TO EACH PROMOTER DOSE (STUDY DURATION: 47 WK), Route [Inhibitor]: DERMAL, Species: MOUSE, Strain/Sex: CF-1/FEMALE, Target Tissue: Type of Lesion: SKIN: PAPILLOMA, Dose [Carcinogen]: 100 NMOL IN 0.2 ML ACETONE ONCE): 94%, 46%, 51%, not calculated
- tumour outcome (control, treated, inhibition, significance) (Carcinogen: 7,12-DIMETHYLBENZ[A]ANTHRACENE, 57-97-6, 10 UMOL IN 0.4 ML ACETONE 20 MIN PRIOR TO EACH PROMOTER DOSE (STUDY DURATION: 47 WK), Route [Inhibitor]: DERMAL, Species: MOUSE, Strain/Sex: CF-1/FEMALE, Target Tissue: Type of Lesion: SKIN: CARCINOMA, Dose [Carcinogen]: 100 NMOL IN 0.2 ML ACETONE ONCE): 67%, 11%, 84%, not calculated
- tumour outcome (control, treated, inhibition, significance) (Carcinogen: 7,12-DIMETHYLBENZ[A]ANTHRACENE, 57-97-6, 10 UMOL IN 0.4 ML ACETONE 20 MIN PRIOR TO EACH PROMOTER DOSE (STUDY DURATION: 47 WK), Route [Inhibitor]: DERMAL, Species: MOUSE, Strain/Sex: CF-1/FEMALE, Target Tissue: Type of Lesion: SKIN: PAPILLOMA, Dose [Carcinogen]: 100 NMOL IN 0.2 ML ACETONE ONCE): 94%, 43%, 54%, not calculated
- tumour outcome (control, treated, inhibition, significance) (Carcinogen: 7,12-DIMETHYLBENZ[A]ANTHRACENE, 57-97-6, 17 MG 2/WK FOR 2 WK APPLIED 20 MIN PRIOR TO EACH TPA DOSE (STUDY DURATION: 22 WK), Route [Inhibitor]: DERMAL, Species: MOUSE, Strain/Sex: SENCAR/FEMALE, Target Tissue: Type of Lesion: SKIN: PAPILLOMA, Dose [Carcinogen]: 6.4 UG IN 0.2 ML ACETONE ONCE, Promoter: 12-O-TETRADECANOYLPHORBOL-13-ACETATE, 16561-29-8, MEZEREIN, 34807-41-5, Promoter: 12-O-TETRADECANOYLPHORBOL-13-ACETATE, 16561-29-8, MEZEREIN, 34807-41-5): 90%, 94%, -4%, not calculated
- tumour outcome (control, treated, inhibition, significance) (Carcinogen: 7,12-DIMETHYLBENZ[A]ANTHRACENE, 57-97-6, 17 MG 2/WK FOR 18 WK APPLIED 20 MIN PRIOR TO EACH MEZEREIN DOSE (STUDY DURATION: 22 WK), Route [Inhibitor]: DERMAL, Species: MOUSE, Strain/Sex: SENCAR/FEMALE, Target Tissue: Type of Lesion: SKIN: PAPILLOMA, Dose [Carcinogen]: 6.4 UG IN 0.2 ML ACETONE ONCE, Promoter: 12-O-TETRADECANOYLPHORBOL-13-ACETATE, 16561-29-8 : MEZEREIN, 34807-41-5, Promoter: 12-O-TETRADECANOYLPHORBOL-13-ACETATE, 16561-29-8 : MEZEREIN, 34807-41-5): 90%, 62%, 31%, not calculated
- tumour outcome (control, treated, inhibition, significance) (Carcinogen: 7,12-DIMETHYLBENZ[A]ANTHRACENE, 57-97-6, 17 MG 2/WK FOR 20 WK APPLIED 20 MIN PRIOR TO AND 24 HR POST EACH PROMOTER DOSE (STUDY DURATION: 22 WK), Route [Inhibitor]: DERMAL, Species: MOUSE, Strain/Sex: CF-1/FEMALE, Target Tissue: Type of Lesion: SKIN: PAPILLOMA, Dose [Carcinogen]: 25.6 UG IN 0.2 ML ACETONE ONCE, Promoter: 12-O-TETRADECANOYLPHORBOL-13-ACETATE, 16561-29-8): 90%, 16%, 82%, not calculated
